Here are results for 1 compound from patent publication US20120202885A1, “METHODS, ASSAYS AND COMPOSITIONS FOR TREATING RETINOL-RELATED DISEASES” (ReVision Therapeutics, Inc., priority 2004, published 2012).

Data set [1] has as its system ABCA4 null mutant mice. The data set can be described thus: HPR given i.p. to ABCA4 null mutant mice for 28 days: serum retinol, ocular retinoids and A2E. Type of data set: in vivo. How it is done: In order to explore the role of HPR in the visual cycle, the in vivo effects of HPR in mice have been examined. Thus, HPR was administered to ABCA4 null mutant mice (5-20 mg/kg, i.p. in DMSO) for periods of 28 days. Control mice received only the DMSO vehicle. At the end of the treatment period, the concentrations of retinol and HPR in serum and retinoid content in ocular tissues was measured. […] Thus, the calculated percent reduction for each of the measured retinoids, and A2E, was nearly identical (see FIG. 2).
Genetic crosses of RBP4^−/− mice with ABCA4^−/− mice was undertaken to examine the role of RBP in mediation of retinol levels in serum and ocular tissue.

The next data set relates to wild type mice. The data set can be described thus: HPR given to wild type mice for 5 days, then illumination: serum and ocular retinoids. The note with it: 20 mg/kg. Type of data set: in vivo. How it is done: In order to ensure that the observed effects of HPR in ABCA4 null mice were not due to the genetic mutation, HPR (20 mg/kg, i.p. in DMSO) was administered to wild type mice for 5 days. Control mice received only the DMSO vehicle. On the final day of HPR treatment, the mice were exposed to constant illumination (1000 lux for 10 min) in order “stimulate” the visual cycle to generate visual chromophore. Immediately following the illumination period, the animals were sacrificed and the concentrations of retinoids in serum and ocular tissue were determined. […] As in the previous study, HPR caused a significant reduction in serum retinol (˜55%), ocular retinol (˜40%) and ocular retinal (˜30%). Although HPR did accumulate within ocular tissues during the treatment period (˜5 μM), no effect on LRAT or Rpe65/isomerase activities was observed.

For data set [2], the target named is Retinol Binding Protein (RBP) (Homo sapiens, UniProt P02753). The data set can be described thus: Competition binding assay of HPR against RBP-retinol by fluorescence quenching. The note with it: physiological temperature; HPR 2 μM (FIG. 9b). From the text: Based upon these findings, we sought to further explore the mechanism(s) of retinol reduction during HPR treatment. A tenable hypothesis is that HPR may displace retinol by competing at the retinol binding site on RBP. […] Therefore, one can measure displacement of retinol from the RBP holoprotein by observing decreases in both protein (340 nm) and retinol (470 nm) fluorescence. We performed a competition binding assay using RBP-retinol/HPR concentrations which were similar to those determined from the 14 day trial at 20 mg/kg HPR described above. […] In the control assays, decreases in retinol fluorescence were associated with concomitant increases in protein fluorescence, see FIG. 9a. This effect was determined to be due to temperature effects as the dissociation constant of RBP-retinol increases (decreased affinity) with increased time at 37 C.

The test system of data set [3] is ABCA4 null mutant mice. The data set can be described thus: 28-day HPR dose study: serum retinol, A2PE-H2, A2E, retinoids, retinal physiology and histology. It is filed as in vivo. How it is done:
ABCA4 null mutant mice were given the indicated dose of HPR in DMSO (i.p.) daily for 28 days (n=4 mice per dosage group). At the end of the study period, blood samples were taken and serum was prepared. Following acetonitrile precipitation of serum proteins, the concentrations of retinol and HPR were determined from the soluble phase by LC/MS (see FIG. 8). Identity of the eluted compounds was confirmed by UV-vis absorption spectroscopy and co-elution of sample peaks with authentic standards.
Group averages from the data shown in panels A-G of FIG. 13 in Example 25 (28 day time points) are plotted to illustrate the strong correlation between increases in serum HPR and decreases in serum retinol (see FIG. 14). Reductions in serum retinol are highly correlated with reductions in A2E and precursor compounds (A2PE-H2). A pronounced reduction in A2PE-H2 in the 2.5 mg/kg dosage group (−47%) is observed when the serum retinol reduction is only 20%. The reason for this disproportionate reduction is related to the inherently lower ocular retinoid content in this group of 2-month old animals compared to the other groups. It is likely that if these animals had been maintained on the 2.5 mg/kg dose for a more prolonged period, a greater reduction in A2E would also be realized.
Panels D-F of FIG. 15 are electrophysiological measurements of rod function (panel D), rod and cone function (panel E) and recovery from photobleaching (panel F).
ABCA4 null mutant mice were given the indicated dose of HPR in DMSO or DMSO alone daily for 28 days (n=16 mice per treatment group). At study onset, mice in the 2.5 mg/kg group were 2 months of age, mice in the other treatment groups were 3 months of age. At the indicated times, representative mice were taken from each group (n=4) for analysis of A2E precursor compounds (see FIG. 13, A2PE-H2, panels A, C and E) and A2E (see FIG. 13, panels B, D and F). Eyes were enucleated, hemisected and lipid soluble components were extracted from the posterior pole by chloroform/methanol-water phase partitioning. Sample extracts were analyzed by LC. Identity of the eluted compounds was confirmed by UV-vis absorption spectroscopy and co-elution of sample peaks with authentic standards. Note: limitations in appropriately age and strain-matched mice in the 10 mg/kg group prevented analysis at the 14-day interval.
Treatment conditions are as described above.

A further data set has as its system ABCA4−/− mice. The data set can be described thus: Drug holiday after 28 days of HPR: A2E and precursors in eyecup extracts (HPLC). The note with it: for A2E and precursor (A2PE-H2 and A2PE) levels: 10 mg/kg 28 days. It is filed as in vivo. How it is done: HPR (10 mg/kg in DMSO) was administered to ABCA4−/− mice daily for a period of 28 days. Control ABCA4−/− mice received only DMSO for the same period. […] Importantly, the observed reductions in lipofuscin autofluorescence persist long after cessation of HPR therapy. HPR (10 mg/kg), or DMSO, administration was discontinued following 28 days of treatment and re-evaluated A2E and precursor levels after 2 weeks and after 4 weeks.
We examined eyecup extracts by HPLC and employed detection by absorbance and fluorimetry. Identity of the indicated peaks was confirmed by on-line spectral analysis and by co-elution with authentic standards. […] Further, the A2E and precursor (A2PE-H2 and A2PE) levels after a […] or 28-day drug holiday remained at or near the levels immediately following 28 days of treatment (i.e., ca. 50% reduction relative to control), although after the 28-day drug holiday, the amount of A2E and precursor (A2PE-H2 and A2PE) had increased by a few percentage points relative to the 12-day drug holiday levels. […] It is clear that peak fluorescence tracks with the abundance of A2E, A2PE and A2PE-H2.

For data set [4] the following is noted: cited from earlier work.
Setting [5] is: 5-20 mg/kg, i.p. in DMSO, 28 days.

`CC1=C(/C=C/C(C)=C/C=C/C(C)=C/C(=O)Nc2ccc(O)cc2)C(C)(C)CCC1` [HPR, N-(4-hydroxyphenyl)retinamide]: in the data set with ABCA4 null mutant mice [1] (setting [5]), the “ocular retinoids and A2E” value was “commensurate reductions in ocular retinoids and A2E”; the “serum retinol as a function of increasing serum HPR” value was “Profound reductions in serum retinol”. Moreover, the “reduction in serum RBP-retinol” value in the data set on ABCA4 null mutant mice [1] (administered dose 10 mg/kg) was 50-60%. The “inhibition of LRAT activity” value in the data set on ABCA4 null mutant mice [1] (mice receiving acute and chronic doses) is “has not been observed”. Also, in the data set on wild type mice (i.p. in DMSO, wild type mice), the “reduction in ocular retinal” value is reported as around 30%, the “reduction in ocular retinol” value is recorded as around 40% and the “reduction in serum retinol” value is listed as around 55%. For the same compound, the “inhibition in synthesis of retinyl esters or visual chromophore” value in the data set with wild type mice (i.p., 1000 lux for 10 min) is on record as “no significant inhibition”. Besides, in the data set with wild type mice (i.p., wild type mice), the “effect on LRAT or Rpe65/isomerase activities” value is “no effect”. Also, the “displacement of retinol from the RBP-retinol holoprotein” value in data set [2] is recorded as “efficiently displaces retinol”. Also, the “reduction in A2PE-H2” value in the data set on ABCA4 null mutant mice [3] (2.5 mg/kg dosage group, 28 days) is listed as −47%. In the data set on ABCA4 null mutant mice [3] (10 mg/kg daily for 28 days), the “electrophysiology: recovery from photobleaching” value was “delayed dark adaptation” and the “regeneration of visual chromophore” value is “does not affect regeneration of visual chromophore”. Also, the “retinal morphology by light microscopy” value in the data set with ABCA4 null mutant mice [3] (28 days) is reported as “No aberrant morphology or compromise of the integrity in retinal cyto structure was observed”. Also, in the data set on ABCA4 null mutant mice [3] (abcr null mutant mice, 28 days), the “level of autofluorescence versus wild type” value is reported as “comparable to that of an age-matched wild-type animal” and the “lipofuscin autofluorescence in the RPE” value is “significantly reduces lipofuscin autofluorescence”. In addition, the “A2PE-H2 and A2E during the study period” value in the data set on ABCA4 null mutant mice [3] (indicated doses daily for 28 days) is “dose-dependent reductions”. Further, the serum retinol result in the data set on ABCA4 null mutant mice [3] (summary statement) is “potently and reversibly reduces serum retinol”. Moreover, the “A2E and precursor (A2PE-H2 and A2PE) levels” value with ABCA4−/− mice (then 12-day drug holiday) is on record as “remain significantly reduced relative to control mice”. Further, the “A2E and precursor (A2PE-H2 and A2PE) levels” value in the data set on ABCA4−/− mice (then 28-day drug holiday) was “remain significantly reduced relative to control mice”. Also, the “detection of HPR or HPR metabolites in the eyes” value in the data set on ABCA4−/− mice (28-day drug holiday) is recorded as “unable to detect”. Moreover, the “reduction of A2E and precursors relative to control” value in the data set on ABCA4−/− mice (immediately following 28 days of treatment, level held after 12- or 28-day drug holiday) was “ca. 50%”. Moreover, the “serum retinol and RBP” value in data set [4] (Formelli et al., Torrisi et al.) was “reductions in serum retinol and RBP”. Besides, the “reduction in circulating RBP and retinol” value in data set [4] (several investigators, Berni et al. 1993) is given as “established in vivo”.
